Assay results as given in PMC4976878 (PLoS ONE, 2016).
pIC50: −log10 of the molar value.

Key:
[1] = target: T1, BmMetRS (Brucella melitensis methionyl-tRNA-synthetase) (Brucella abortus, UniProt Q2YQ76); assay: biochemical
T1 construct: gene metG

[2] = target: T2, human mitochondrial MetRS (Homo sapiens, UniProt Q96GW9); assay: enzyme inhibition, assay not given; assay type: biochemical
T2 construct: gene MARS2
T2 sequence (Q96GW9 30-593): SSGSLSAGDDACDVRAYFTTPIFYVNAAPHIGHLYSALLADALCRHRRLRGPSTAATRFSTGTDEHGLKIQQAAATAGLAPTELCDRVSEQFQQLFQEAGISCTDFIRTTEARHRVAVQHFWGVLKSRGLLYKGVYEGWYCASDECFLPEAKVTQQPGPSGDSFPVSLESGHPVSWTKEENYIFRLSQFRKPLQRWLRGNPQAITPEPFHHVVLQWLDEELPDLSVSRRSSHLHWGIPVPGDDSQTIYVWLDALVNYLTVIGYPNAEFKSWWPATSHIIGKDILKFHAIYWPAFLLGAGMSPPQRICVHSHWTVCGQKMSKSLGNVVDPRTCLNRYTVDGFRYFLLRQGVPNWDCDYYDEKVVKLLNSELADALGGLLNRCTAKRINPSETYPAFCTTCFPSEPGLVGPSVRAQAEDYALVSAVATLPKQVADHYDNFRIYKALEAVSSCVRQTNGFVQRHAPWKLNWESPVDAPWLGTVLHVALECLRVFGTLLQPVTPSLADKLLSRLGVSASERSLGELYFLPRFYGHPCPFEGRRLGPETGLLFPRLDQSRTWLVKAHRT

T1 sequence (Q2YQ76 1-515 limits assumed): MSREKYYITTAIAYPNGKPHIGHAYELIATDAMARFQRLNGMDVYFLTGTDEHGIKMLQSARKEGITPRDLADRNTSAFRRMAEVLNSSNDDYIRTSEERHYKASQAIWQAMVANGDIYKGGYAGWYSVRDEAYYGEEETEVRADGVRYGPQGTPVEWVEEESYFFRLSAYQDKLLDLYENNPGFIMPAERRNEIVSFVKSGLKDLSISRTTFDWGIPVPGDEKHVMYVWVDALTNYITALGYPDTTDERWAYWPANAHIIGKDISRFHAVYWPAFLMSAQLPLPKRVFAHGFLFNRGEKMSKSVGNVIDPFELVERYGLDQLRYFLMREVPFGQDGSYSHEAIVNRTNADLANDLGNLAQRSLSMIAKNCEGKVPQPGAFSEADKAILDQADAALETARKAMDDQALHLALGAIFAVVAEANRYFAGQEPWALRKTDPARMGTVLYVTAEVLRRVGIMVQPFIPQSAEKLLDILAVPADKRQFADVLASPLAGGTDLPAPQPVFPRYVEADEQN

| Structure (SMILES) | pIC50 [1] | IC50 [2] |
| --- | --- | --- |
| COc1cc(Cl)cc(CNCCCNC(=O)Nc2ccccc2)c1 [compound 1415, 1415] | 5.78 | The characteristics of each inhibitor experimentally measured against human mitochondria MetRS |
| O=C(NCCCNCc1cc(Cl)cc(Cl)c1)Nc1ccsc1 [compound 1433, 1433] | 6.57 | The characteristics of each inhibitor experimentally measured against human mitochondria MetRS |
| O=c1cc(NCCCNCc2cc(Cl)cc(Cl)c2)[nH]c2ccccc12 [compound 1312, 1312] | 8.22 | the IC50 values from human mitochondrial MetRS is very similar to that of BmMetRS |
